From patent US20240067693A1, “POLYPEPTIDES AND USES THEREOF” (MEDIMMUNE LIMITED, priority 2020, published 2024)
Numbered stars: 1 amine (or outer) side, 2 acyl side, 3 side chain; on linkers, the order of the positions; unused ones are H or OH. Bridge positions count the residues as written; N and C are the ends. Square brackets hold non-standard residues; d marks the D form. Side chains are listed from the residue outwards. Peptide text beside a SMILES is read from it. * marks the point of attachment. C18 diacid = O=C(O)CCCCCCCCCCCCCCCCC(=O)*; γGlu = O=C(O)[C@H](CCC(=O)[*:2])N[*:1]; αMeF = C[C@](N)(Cc1ccccc1)C(=O)O; AEEA = NCCOCCOCC(=O)O

Legend:
[1] = target: T1, human amylin receptor (calcitonin receptor co-expressed with receptor activity modifying protein, RAMP3) (hAMYR3) (Homo sapiens, UniProt O60896+P30988); experiment: cAMP production in 1321N1 cells with stable recombinant expression of human amylin receptor (hAMYR3); type: cell-based; details: for Ratio (selectivity hAMYR vs hCTR, ratio of EC50 values at the two receptors): EC50 hCTR / EC50 hAMYR3; for EC50: cAMP, 1321N1 cells, assay buffer with 0.1% BSA, read-out: EC50 (pM) hAMYR3
T1 construct: expressed in transfected cells
T1 sequence (P30988 25-474): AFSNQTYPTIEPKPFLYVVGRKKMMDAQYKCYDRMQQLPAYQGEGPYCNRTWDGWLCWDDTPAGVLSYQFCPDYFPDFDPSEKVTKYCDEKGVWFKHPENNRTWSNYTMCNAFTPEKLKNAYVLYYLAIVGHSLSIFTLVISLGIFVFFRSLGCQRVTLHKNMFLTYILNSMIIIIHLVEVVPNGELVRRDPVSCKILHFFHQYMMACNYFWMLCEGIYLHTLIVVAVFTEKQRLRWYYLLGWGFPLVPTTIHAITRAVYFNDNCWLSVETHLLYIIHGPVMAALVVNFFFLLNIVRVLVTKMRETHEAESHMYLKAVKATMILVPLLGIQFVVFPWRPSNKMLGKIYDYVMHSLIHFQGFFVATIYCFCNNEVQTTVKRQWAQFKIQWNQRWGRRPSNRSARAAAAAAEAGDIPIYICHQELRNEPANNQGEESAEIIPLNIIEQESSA
T1 sequence (O60896 24-148 partner): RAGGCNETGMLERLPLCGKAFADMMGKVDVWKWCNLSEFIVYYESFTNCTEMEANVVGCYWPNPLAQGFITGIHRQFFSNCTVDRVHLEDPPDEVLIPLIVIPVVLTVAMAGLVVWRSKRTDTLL
How it was run: (§1)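 EC50 values come from 4-parameter logistic fits of HTRF cAMP signal, normalised to maximal calcitonin or amylin effect. Peptides were tested in duplicate for 30 min at RT in IBMX-containing (0.5 mM) BSA/HEPES buffer pH 7.4 on stable 1321N1 (human CTR, AMYR3) or HEK (rat CTR, AMYR3) lines.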

[2] = target: T2, human calcitonin receptor (hCTR) (Homo sapiens, UniProt P30988); experiment: cAMP production in 1321N1 cells with stable recombinant expression of human calcitonin receptor (hCTR); type: cell-based; details: cAMP, 1321N1 cells, assay buffer with 0.1% BSA; read-out: EC50 (pM) hCTR
T2 construct: expressed in transfected cells
T2 sequence (P30988 25-474): T1 sequence (P30988 25-474)
How it was run: as §1

[3] = Thioflavin T fibrillation assay; type: physicochemical; details: for fibril-forming tendency: ThT assay, 1 mg/mL, pH 4.0, 37 °C, compared to pramlintide; for Time taken to detect increase in fluorescence intensity: ThT fibrillation assay, peptide 1 mg/mL in 25 mM sodium acetate buffer pH 4.0, 6 days at 37 °C with shaking, >144 h = no increase
How it was run: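 Peptides at 1 mg/mL in 25 mM sodium acetate pH 4.0 with ThT (from 0.25 mM stock), incubated 6 days at 37 °C with intermittent orbital shaking at 500–750 rpm. Fluorescence (ex 444/em 480 nm) read every 30 min; value is average time to a rise in baseline-corrected signal.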

in vivo = details: male, Sprague-Dawley, rat, 20 nmol/kg

Structure (SMILES): CC[C@H](C)[C@H](NC(=O)[C@@H]1CCCN1C(=O)CNC(=O)[C@H](Cc1ccccc1)NC(=O)[C@H](CC(N)=O)NC(=O)[C@H](CC(N)=O)NC(=O)[C@H](CO)NC(=O)[C@H](CO)NC(=O)[C@H](Cc1c[nH]cn1)NC(=O)[C@@H](NC(=O)[C@H](CC(C)C)NC(=O)[C@H](Cc1ccccc1)NC(=O)[C@H](CC(N)=O)NC(=O)[C@H](C)NC(=O)[C@H](CC(C)C)NC(=O)[C@H](CCCNC(=N)N)NC(=O)[C@H](CCC(N)=O)NC(=O)[C@@H](NC(=O)[C@H](C)NC(=O)[C@@H]1CSSC[C@H](NC(=O)[C@H](CCCCN)NC(=O)CNC(=O)CNC(=O)CNC(=O)CC[C@H](NC(=O)CC[C@H](NC(=O)CCCCCCCCCCCCCCCCC(=O)O)C(=O)O)C(=O)O)C(=O)N[C@@H](CC(N)=O)C(=O)N[C@@H]([C@@H](C)O)C(=O)N[C@@H](C)C(=O)N[C@@H]([C@@H](C)O)C(=O)N1)[C@@H](C)O)C(C)C)C(=O)N[C@@H](CC(C)C)C(=O)N1CCC[C@H]1C(=O)N1CCC[C@H]1C(=O)N[C@H](C(=O)N[C@@H](CC(N)=O)C(=O)N[C@H](C(=O)NCC(=O)N[C@@H](CO)C(=O)N[C@@H](CC(N)=O)C(=O)N[C@H](C(=O)N[C@@H](Cc1ccc(O)cc1)C(N)=O)[C@@H](C)O)C(C)C)[C@@H](C)O [Peptide 4] ({C18 diacid-γGlu-γGlu}-GGGKCNTATCATQRLANFLVHSSNNFGPILPPTNVGSNTY-NH2; disulfide 5-10)
- Ratio (selectivity hAMYR vs hCTR, ratio of EC50 values at the two receptors) [1]: 30
- EC50 [1]: 248 pM
- EC50 [2]: 7530 pM
- fibril-forming tendency [3]: increases the fibril-forming tendency
- Time taken to detect increase in fluorescence intensity [3]: <5 h
- half-life (in vivo; iv): 12 h
- half-life (in vivo; sc): 12 h

Structure (SMILES): CC[C@H](C)[C@H](NC(=O)[C@@H]1CCCN1C(=O)CNC(=O)[C@](C)(Cc1ccccc1)NC(=O)[C@H](CC(N)=O)NC(=O)[C@H](CC(N)=O)NC(=O)[C@H](CO)NC(=O)[C@H](CO)NC(=O)[C@H](Cc1c[nH]cn1)NC(=O)[C@@H](NC(=O)[C@H](CC(C)C)NC(=O)[C@H](Cc1ccccc1)NC(=O)[C@H](CC(N)=O)NC(=O)[C@H](C)NC(=O)[C@H](CC(C)C)NC(=O)[C@H](CCCNC(=N)N)NC(=O)[C@H](CCC(N)=O)NC(=O)[C@@H](NC(=O)[C@H](C)NC(=O)[C@@H]1CSSC[C@H](NC(=O)[C@@H](N)CCCCNC(=O)CC[C@H](NC(=O)CC[C@H](NC(=O)CCCCCCCCCCCCCCCCC(=O)O)C(=O)O)C(=O)O)C(=O)N[C@@H](CC(N)=O)C(=O)N[C@@H]([C@@H](C)O)C(=O)N[C@@H](C)C(=O)N[C@@H]([C@@H](C)O)C(=O)N1)[C@@H](C)O)C(C)C)C(=O)N[C@@H](CC(C)C)C(=O)N1CCC[C@H]1C(=O)N1CCC[C@H]1C(=O)N[C@H](C(=O)N[C@@H](CC(N)=O)C(=O)N[C@H](C(=O)NCC(=O)N[C@@H](CO)C(=O)N[C@@H](CCCNC(=N)N)C(=O)N[C@H](C(=O)N[C@@H](Cc1ccc(O)cc1)C(N)=O)[C@@H](C)O)C(C)C)[C@@H](C)O [Peptide 21, K(γE-γE-C18diacid)[CNTATC]ATQRLANFLVHSSNN(αMePhe)GPILPPTNVGSRTY-amide] (H-K([γGlu-γGlu-C18 diacid])CNTATCATQRLANFLVHSSNN[αMeF]GPILPPTNVGSRTY-NH2; disulfide 2-7; N-terminus assumed)
- Ratio (selectivity hAMYR vs hCTR, ratio of EC50 values at the two receptors) [1]: 25
- EC50 [1]: 136 pM
- EC50 [2]: 3410 pM
- Time taken to detect increase in fluorescence intensity [3]: >144 h
- half-life (in vivo; iv): 8 h
- half-life (in vivo; sc): 8.1 h

Structure (SMILES): CC[C@H](C)[C@H](NC(=O)[C@@H]1CCCN1C(=O)CNC(=O)[C@H](Cc1ccccc1)NC(=O)[C@H](CC(N)=O)NC(=O)[C@H](CC(N)=O)NC(=O)[C@H](CO)NC(=O)[C@H](CO)NC(=O)[C@H](Cc1c[nH]cn1)NC(=O)[C@@H](NC(=O)[C@H](CC(C)C)NC(=O)[C@H](Cc1ccccc1)NC(=O)[C@H](CC(N)=O)NC(=O)[C@H](C)NC(=O)[C@H](CC(C)C)NC(=O)[C@H](CCCNC(=N)N)NC(=O)[C@H](CCC(N)=O)NC(=O)[C@@H](NC(=O)[C@H](C)NC(=O)[C@@H]1CSSC[C@H](NC(=O)[C@@H](N)CCCCNC(=O)COCCOCCNC(=O)COCCOCCNC(=O)CC[C@H](NC(=O)CCCCCCCCCCCCCCCCC(=O)O)C(=O)O)C(=O)N[C@@H](CC(N)=O)C(=O)N[C@@H]([C@@H](C)O)C(=O)N[C@@H](C)C(=O)N[C@@H]([C@@H](C)O)C(=O)N1)[C@@H](C)O)C(C)C)C(=O)N[C@@H](CC(C)C)C(=O)N1CCC[C@H]1C(=O)N1CCC[C@H]1C(=O)N[C@H](C(=O)N[C@@H](CC(N)=O)C(=O)N[C@H](C(=O)NCC(=O)N[C@@H](CO)C(=O)N[C@@H](CC(N)=O)C(=O)N[C@H](C(=O)N[C@@H](Cc1ccc(O)cc1)C(N)=O)[C@@H](C)O)C(C)C)[C@@H](C)O [Peptide 6] (H-K([AEEA-AEEA-γGlu-C18 diacid])CNTATCATQRLANFLVHSSNNFGPILPPTNVGSNTY-NH2; disulfide 2-7; N-terminus assumed)
- Ratio (selectivity hAMYR vs hCTR, ratio of EC50 values at the two receptors) [1]: 5
- EC50 [1]: 68 pM
- EC50 [2]: 310 pM
- fibril-forming tendency [3]: increases the fibril-forming tendency
- Time taken to detect increase in fluorescence intensity [3]: 15 h
- half-life (in vivo; iv): 9.5 h
- half-life (in vivo; sc): 17.6 h

Structure (SMILES): CC[C@H](C)[C@H](NC(=O)[C@@H]1CCCN1C(=O)CNC(=O)[C@](C)(Cc1ccccc1)NC(=O)[C@H](CC(N)=O)NC(=O)[C@H](CC(N)=O)NC(=O)[C@H](CO)NC(=O)[C@H](CO)NC(=O)[C@H](Cc1c[nH]cn1)NC(=O)[C@@H](NC(=O)[C@H](CC(C)C)NC(=O)[C@H](Cc1ccccc1)NC(=O)[C@H](CC(N)=O)NC(=O)[C@H](C)NC(=O)[C@H](CC(C)C)NC(=O)[C@H](CCCNC(=N)N)NC(=O)[C@H](CCC(N)=O)NC(=O)[C@@H](NC(=O)[C@H](C)NC(=O)[C@@H]1CSSC[C@H](NC(=O)[C@@H](N)CCCCNC(=O)CC[C@H](NC(=O)CCCCCCCCCCCCCCCCC(=O)O)C(=O)O)C(=O)N[C@@H](CC(N)=O)C(=O)N[C@@H]([C@@H](C)O)C(=O)N[C@@H](C)C(=O)N[C@@H]([C@@H](C)O)C(=O)N1)[C@@H](C)O)C(C)C)C(=O)N[C@@H](CC(C)C)C(=O)N1CCC[C@H]1C(=O)N1CCC[C@H]1C(=O)N[C@H](C(=O)N[C@@H](CCCNC(=N)N)C(=O)N[C@H](C(=O)NCC(=O)N[C@@H](CO)C(=O)N[C@@H](CC(N)=O)C(=O)N[C@H](C(=O)N[C@@H](Cc1ccc(O)cc1)C(N)=O)[C@@H](C)O)C(C)C)[C@@H](C)O [Peptide 25, K(γE-C18diacid)[CNTATC]ATQRLANFLVHSSNN(αMePhe)GPILPPTRVGSNTY-amide] (H-K([γGlu-C18 diacid])CNTATCATQRLANFLVHSSNN[αMeF]GPILPPTRVGSNTY-NH2; disulfide 2-7)
- Ratio (selectivity hAMYR vs hCTR, ratio of EC50 values at the two receptors) [1]: 12
- EC50 [1]: 105 pM
- EC50 [2]: 1250 pM
- Time taken to detect increase in fluorescence intensity [3]: >144 h
- half-life (in vivo; iv): 6.9 h
- half-life (in vivo; sc): 8 h

Structure (SMILES): CC[C@H](C)[C@H](NC(=O)[C@@H]1CCCN1C(=O)CNC(=O)[C@H](Cc1ccccc1)NC(=O)[C@H](CC(N)=O)NC(=O)[C@H](CC(N)=O)NC(=O)[C@H](CO)NC(=O)[C@H](CO)NC(=O)[C@H](Cc1c[nH]cn1)NC(=O)[C@@H](NC(=O)[C@H](CC(C)C)NC(=O)[C@H](Cc1ccccc1)NC(=O)[C@H](CC(N)=O)NC(=O)[C@H](C)NC(=O)[C@H](CC(C)C)NC(=O)[C@H](CCCNC(=N)N)NC(=O)[C@H](CCC(N)=O)NC(=O)[C@@H](NC(=O)[C@H](C)NC(=O)[C@@H]1CSSC[C@H](NC(=O)[C@@H](N)CCCCNC(=O)CC[C@H](NC(=O)CC[C@H](NC(=O)CCCCCCCCCCCCCCCCC(=O)O)C(=O)O)C(=O)O)C(=O)N[C@@H](CC(N)=O)C(=O)N[C@@H]([C@@H](C)O)C(=O)N[C@@H](C)C(=O)N[C@@H]([C@@H](C)O)C(=O)N1)[C@@H](C)O)C(C)C)C(=O)N[C@@H](CC(C)C)C(=O)N1CCC[C@H]1C(=O)N1CCC[C@H]1C(=O)N[C@H](C(=O)N[C@@H](CC(N)=O)C(=O)N[C@H](C(=O)NCC(=O)N[C@@H](CO)C(=O)N[C@@H](CC(N)=O)C(=O)N[C@H](C(=O)N[C@@H](Cc1ccc(O)cc1)C(N)=O)[C@@H](C)O)C(C)C)[C@@H](C)O [Peptide 5] (H-K([γGlu-γGlu-C18 diacid])CNTATCATQRLANFLVHSSNNFGPILPPTNVGSNTY-NH2; disulfide 2-7; N-terminus assumed)
- Ratio (selectivity hAMYR vs hCTR, ratio of EC50 values at the two receptors) [1]: 21
- EC50 [1]: 174 pM
- EC50 [2]: 3600 pM
- fibril-forming tendency [3]: increases the fibril-forming tendency
- Time taken to detect increase in fluorescence intensity [3]: 7 h
- half-life (in vivo; iv): 10.5 h
- half-life (in vivo; sc): 9.4 h
